The values that follow come from PubChem BioAssay AID2080 (NMMLSC, 2009).

Structures are written as SMILES. The source made the active and inactive calls. How the calls were made is not given here.

The first assay deals with Bcl-2-related protein A1 (Homo sapiens) (UniProt Q16548). Put plainly: Bfl-1/Bim complex disruptors – biochemical, multiplexed, bead-based flow cytometry, HTS hits, confirmation (AID 2080). As to conditions: Bim peptide-Bfl-1 binding. In general terms: A flow cytometer gives signals particle by particle.
Sequence of Bcl-2-related protein A1 (Homo sapiens) (Q16548 whole entry, looked up): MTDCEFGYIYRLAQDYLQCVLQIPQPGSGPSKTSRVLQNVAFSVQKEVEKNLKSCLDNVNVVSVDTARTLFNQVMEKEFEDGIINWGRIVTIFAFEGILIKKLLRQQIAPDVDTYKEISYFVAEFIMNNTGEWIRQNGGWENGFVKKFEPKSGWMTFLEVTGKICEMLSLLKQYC
Regarding `COc1ccc(N2C(=O)C(Cl)=C(NC3C(=O)N(c4ccccc4)N(C)C3C)C2=O)cc1` (stereo not drawn), the EC50 was 1.24 µM.

Staying with this assay, now noted: Bim peptide-Bfl-1 binding, at 100 µM (top of the series).
Consider `O=C(/C=C/c1ccc(-c2ccccc2[N+](=O)[O-])o1)c1ccccc1`, for which the inhibition of binding result is “inactive”.

Take `CNC1CCC(Br)CC(C(=O)/C=C/c2cccc(OC)c2OC)C1=O` (stereo not drawn): the inhibition of binding entry was “inactive”. Consider `O=C1NC(=O)C2(Cc3c(nc4ccccn4c3=O)N3CCCCCC32)C(=O)N1Cc1ccccc1` (stereo not drawn), for which the inhibition of binding entry was “inactive”. `Cc1ccc(C=NNC(=O)CSc2nnc(-c3ccc(Cl)cc3)n2-c2ccccc2)o1`: the inhibition of binding entry was “inactive”. On the same count and under the same terms, then `O=c1c2c(n3nnnc3n1Cc1ccccc1)-c1ccccc1CC21CCCC1`, with “inactive”; and `CCN(CC)C(=O)COC(=O)c1cc(-c2ccco2)nc2ccccc12`, with “inactive”; and `O=C1c2ccccc2C(=O)N1CN(C(=O)COc1ccc(Cl)cc1Cl)c1cccc(F)c1`, with “inactive”.

Take `COc1cc(CNc2ccc3[nH]c(=O)[nH]c3c2)cc(Br)c1OCC(=O)NC(C)(C)C`: the inhibition of binding entry is “inactive”. Take `Cc1ccc(-c2cc(C(=O)Nc3nccs3)c3ccccc3n2)o1`: the inhibition of binding result is “inactive”. As for `CCOc1ccccc1CNc1ccc(O)cc1`, the inhibition of binding result is “inactive”. On to `CCN(CC)c1ccc(NC(=O)COc2ccccc2C)cc1S(=O)(=O)Nc1ccccc1OC`, for which the inhibition of binding entry was “inactive”. The same measure, in the same setting: as for `Cc1ccc(-c2nc3c(c(=O)[nH]c(=O)n3Cc3ccccc3)n2C)o1`, the entry is “inactive”.

The term EC50 denotes the concentration needed to bring the measured effect to its halfway point.
